In patent EP0056114A1, “Pyridylamino benzoic acids, their preparation and use” (C.H. BOEHRINGER SOHN, priority 1981, dated 1982):

System: Ratte
Experiment: PCA test in the rat, oral administration
Assay type: in vivo
Conditions: factor by which the ED50 is lower than that of Verbindung A (no absolute ED50 printed)

CC(C)c1ccc(Nc2ccc(C(=O)O)cc2C(=O)O)nc1
Fold lower ED50 than compound A (rat PCA test, oral): ca. 100 mal
